Source: article PMC9147790, “Synthesis of Coumarin Derivatives: A New Class of Coumarin-Based G Protein-Coupled Receptor Activators and Inhibitors” (Polymers, 2022)
Read-outs that look alike come from different tables or passages of the source.

Columns and labels:
mouse GPCRs [1] = assay: DAS-ELISA evaluation of coumarin derivatives on GPCRs (inhibition/activation); assay type: biochemical; conditions: for IC50: concentration achieving 50% inhibition of the GPCRs' standard at 10 ng/L; for IC50 / EC50: mean of two independent experiments ± SD; for EC50: concentration achieving 50% activation of the GPCRs' standard at 10 ng/L; for IC50(nM) (% INHIBITION): % inhibition (inhibition rate): value in parentheses beside the > IC50 bound, daphnetin: at 10 ng/L; for EC50(nM) (% Activation): % Activation: value in parentheses beside the > EC50 bound; for GPCR activation potency (in words) / GPCRs-inhibitory activity (in words): DAS-ELISA
Method: All chemicals and reagents used in the study were commercially available and used as received. Thin-layer chromatography (TLC) and column chromatography (300–400 mesh) were achieved using instruments from Qingdao Makall Group Co., Ltd. (Qingdao, China). ^1H NMR and ^13C NMR spectra were recorded on a Bruker DRX-500 (^1H/^13C, 500 MHz/125 MHz) spectrometer (Bruker, Bremerhaven, Germany) or a JEOL 400YH (^1H/^13C, 400 MHz/100 MHz) and chemical shifts were given in δ with the TMS as an internal reference. The ESI-MS spectroscopy was measured on an Advantage Max LCQ Thermo-Finnigan mass spectrometer. The ELISA kit was purchased from Shanghai Fusheng Industry Co., Ltd. (Shanghai, China), and the standard in the kit was Class B GPCRs.
All the synthesized coumarin derivatives were dissolved in 500 μL of DMSO, and then diluted to 1 mL by distilled water to get 1 mg/mL of stock solution. Finally, the stock solution was diluted to 1000 μg/L, 10 μg/L, 0.1 μg/L, and 0.001 μg/L in turn and stored in a refrigerator at 4 ℃ for reserve.
The inhibitory/activation activities of all of the synthesized coumarin derivatives on GPCRs were evaluated through incubation using mouse GPCRs provided by the ELISA kit (Shanghai Fusheng Industrial Co., Ltd. Shanghai, China). Other components of the kit included a water solution (30 times concentrated), a HRP conjunction reagent, a sample diluent, a standard diluent, standard, a chromogenic reagent A, a chromogenic reagent B, and a stop solution.
The 15 μL of stock solution and 15 μL of diluted standard solution were thoroughly mixed and incubated at 37 ℃ for 10 mins to prepare a reaction solution. The assay was conducted according to the kit protocol, that is, by adding the 25 μL of reaction solution to a 96-well enzyme-labeled plate containing solid phase anti-GPCRs antibodies. Then the plate was incubated for 30 mins at 37 ℃. Then, 25 μL of Chromogener A and 25 μL of Chromogener B were then added to react. Finally, 25 μL of the termination solution was added to each well to terminate the reaction and the mixture was fully mixed. Derivatives were tested in four different concentrations: 10 ng/L, 1 ng/L, […], and 10 μg/L. A diluent was prepared, dissolved and diluted with the other components of the kit according to the instructions in the kit, and a termination solution was added to the reaction. Then, the OD value was obtained by a microplate reader in 15 mins. All the derivatives were set into two independent experimental groups, and the inhibition of GCPRs, which was expressed as a percentage, was based on these groups.
Inhibition rate = [OD(positive) − OD(test compound)]/[OD(positive) − OD(blank)] ∗ 100%.
IC50/EC50 were obtained from Modified Karber formula [66] as the following: lgρ=Xm−IP−3−Pm−Pn/4
ρ: Concentration of compounds; Xm: Maximum dose; I = (Minimum inhibition rate)/Adjacent dose.
P: Sum of inhibition rates; Pm: Maximum inhibition rate; Pn: Minimum inhibition rate.
All values are the mean of two independent experiments ± SD.

mouse GPCRs [2] = test system: mouse GPCRs; parameters: method as in PMID 33142412; conditions: earlier work shown in Figure 2; cited from earlier work

Molecule	IC50 (mouse GPCRs [1]) [nM]	EC50 (mouse GPCRs [1]) [nM]	other results
4-Benzyl-7-ethoxy-4-methyl-2H-chromen-2-one [Derivative 23]	0.76 ± 0.7		
O=c1cc(-c2ccc(F)cc2)c2ccc(O)c(O)c2o1 [Derivative 1, 4-(4-Fluorophenyl)-7,8-dihydroxy-2 H-chromen-2-one]		0.56 ± 0.02	
O=c1cc(C(F)F)c2ccc(O)c(O)c2o1 [Derivative 2, 4-(Difluoromethyl)-7,8-dihydroxy-2H-chromen-2-one]		> 43.8	EC50(nM) (% Activation): % Activation (mouse GPCRs [1]): 39.82%
O=c1cc(-c2ccccc2)c2ccc(O)c(O)c2o1 [Derivative 3, 7,8-Dihydroxy-4-phenyl-2H-chromen-2-one]		> 43.8	EC50(nM) (% Activation): % Activation (mouse GPCRs [1]): 35.75%
CCc1cc(=O)oc2c(O)c(O)ccc12 [Derivative 4, 4-Ethyl-7,8-dihydroxy-2H-chromen-2-one]	0.15 ± 0.01		GPCR activation potency (in words) (mouse GPCRs [1]): completely lost their GPCRs-activation potency
CCC(=O)Oc1ccc2c(CCl)cc(=O)oc2c1OC(=O)CC [Derivative 8, 4-(Chloromethyl)-2-oxo-2H-chromene-7,8-diyl dipropionate]	6.86 ± 0.04		GPCR activation potency (in words) (mouse GPCRs [1]): no GPCR activation potency
Cc1cc(=O)oc2cc(O)ccc12 [Derivative 9, 7-Hydroxy-4-methyl-2H-chromen-2-one]	1.25	1.25 ± 0.89	GPCRs-inhibitory activity (in words) (mouse GPCRs [1]): no GPCRs-inhibitory activity
COc1cc(=O)oc2cc(O)ccc12 [Derivative 10, 7-Hydroxy-4-methoxy-2H-chromen-2-one]	> 48.5		IC50(nM) (% INHIBITION): % inhibition (inhibition rate) (mouse GPCRs [1]): 33.58%
Cc1c(C)c2ccc(O)cc2oc1=O [Derivative 12, 7-Hydroxy-3,4-dimethyl-2H-chromen-2-one]		1.07 ± 0.33	
O=c1cc(C(F)(F)F)c2ccc(O)cc2o1 [Derivative 13, 7-Hydroxy-4-(trifluoromethyl)-2H-chromen-2-one]	7.75 ± 7.23		
Cc1c(F)c(=O)oc2cc(O)ccc12 [Derivative 16, 3-Fluoro-7-hydroxy-4-methyl-2H-chromen-2-one]		0.24 ± 0.21	
Cc1c(C#N)c(=O)oc2cc(O)ccc12 [Derivative 17, 7-Hydroxy-4-methyl-2-oxo-2H-chromene-3-carbonitrile]		0.03 ± 0.02	
CCc1cc(=O)oc2cc(O)ccc12 [Derivative 18, 4-Ethyl-7-hydroxy-2H-chromen-2-one]		0.03 ± 0.01	GPCRs-inhibitory activity (in words) (mouse GPCRs [1]): no GPCRs-inhibitory activity
Cc1cc(=O)oc2cc(Oc3ccnc(Cl)n3)ccc12 [Derivative 21, 7–((2–chloropyrimidin–4–yl)oxy)–4–methyl–2H–chromen–2–one]	0.02	0.02 ± 0.01	
COc1ccc2c(C)c(Cc3ccccc3)c(=O)oc2c1 [Derivative 22, 3-Benzyl-7-methoxy-4-methyl-2H-chromen-2-one]	9.67 ± 2.59		

Further lines, with some results ahead:

IC50 (mouse GPCRs [1]) [nM]	EC50 (mouse GPCRs [1]) [nM]	Molecule	other results
	2.65 ± 0.25	Cc1cc(=O)oc2c(O)c(O)ccc12 [4a, reference compound]	
> 10		O=c1ccc2ccc(O)c(O)c2o1 [Daphnetin, daphnetin, reference compound]	EC50 (mouse GPCRs [2]): > 10 nM; Inhibition rate (in Figure 2) (mouse GPCRs [2]): 49.43%; IC50(nM) (% INHIBITION): % inhibition (inhibition rate) (mouse GPCRs [1]): 49.43%
3.77 ± 0.58		CCCc1cc(=O)oc2c(O)c(O)ccc12 [Derivative 5, 7,8-Dihydroxy-4-propyl-2H-chromen-2-one]	GPCR activation potency (in words) (mouse GPCRs [1]): completely lost their GPCRs-activation potency
0.02 ± 0.01		CC(=O)Oc1ccc2c(CCl)cc(=O)oc2c1OC(C)=O [Derivative 7, 4-(Chloromethyl)-2-oxo-2H-chromene-7,8-diyl diacetate]	GPCR activation potency (in words) (mouse GPCRs [1]): no GPCR activation potency
	1.28 ± 1.07	CCc1c(C)c2ccc(O)cc2oc1=O [Derivative 11, 3-Ethyl-7-hydroxy-4-methyl-2H-chromen-2-one]	
	0.03 ± 0.02	Cc1c(Cl)c(=O)oc2cc(O)ccc12 [Derivative 14, 3-Chloro-7-hydroxy-4-methyl-2H-chromen-2-one]	
3.6	3.6 ± 0.11	Cc1c(Cc2ccccc2)c(=O)oc2cc(O)ccc12 [Derivative 15, 3-Benzyl-7-hydroxy-4-methyl-2H-chromen-2-one]	
	4.22 ± 3.49	O=c1cc(CCl)c2ccc(O)cc2o1 [Derivative 19, 4-(Chloromethyl)-7-hydroxy-2H-chromen-2-one]	GPCRs-inhibitory activity (in words) (mouse GPCRs [1]): no GPCRs-inhibitory activity
	> 42	O=c1cc(-c2ccccc2)c2ccc(O)cc2o1 [Derivative 20, 7-Hydroxy-4-phenyl-2H-chromen-2-one]	EC50(nM) (% Activation): % Activation (mouse GPCRs [1]): 34.41%
	> 35.7	CC(=O)Oc1ccc2c(C)c(Cc3ccccc3)c(=O)oc2c1 [Derivative 24, 3-Benzyl-4-methyl-2-oxo-2H-chromen-7-yl acetate]	EC50(nM) (% Activation): % Activation (mouse GPCRs [1]): 32.82%
	12 ± 9.47	CCC(=O)Oc1ccc2c(C)c(Cc3ccccc3)c(=O)oc2c1 [Derivative 25, 3-Benzyl-4-methyl-2-oxo-2H-chromen-7-yl propionate]	
